Test results taken from patent US10913774B2, “Cyclic peptide binder against oncogenic K-Ras” (California Institute of Technology, priority 2015, dated 2021).
Entries after “also recorded” stand apart in the source; their conditions may differ.

How the values were obtained:
K-Ras G12D [1] = biological target: T1, K-Ras G12D (Homo sapiens, UniProt P01116, G12D); experiment: Western blot of K-Ras G12D protein levels in Panc 08.13 cancer cells after peptide treatment; assay type: cell-based; settings: Panc 08.13 cells (homozygous K-Ras G12D), 30 minutes treatment, 0.3 mM
Description: Example 5. Degradation of K-Ras G12D using Cyclic Peptides. […] Proteolysis-targeting chimeras (PROTACs) using Hif and other proteins are described in Toure and Crews, 2016, Angew. Chem. Int. Ed, 55:2-10, the entire contents of which are incorporated herein by reference. The 7b-Hif PROTAC was further conjugated with the HIV-TAT cell-penetrating peptide […] (SEQ ID NO: 24).
Cell culture. Panc 08.13 cell lines were purchased from American Type Culture collection and cultured as specified by the provider.
Immunoblotting. Western blots were performed according to standard protocols. Briefly, cells were lysed with cell lysis buffer (Cell Signaling Technology) containing protease and phosphatase inhibitors (Cell Signaling Technology). Cell lysates were quantified with a Bradford protein assay (Thermo Scientific) and prepared for gel electrophoresis in Laemmli sample buffer and reducing agent. 20 μg of cell lysate were added to precast polyacrylamide gels (Bio-Rad) and proteins were separated by electrophoresis followed by transfer to PVDF membrane. Membranes were then blocked and probed with an anti-Ras or anti-Tubulin primary antibody followed by horseradish peroxidase-conjugated secondary antibody (Cell Signaling Technology). The bands were visualized by chemiluminescence (Thermo Scientific).

K-Ras G12D [2] = biological target: T1, K-Ras G12D; experiment: ELISA binding assay of biotinylated cyclic peptides to K-Ras G12D
Description: For ELISA assays, 1 μM of the biotinylated hit peptides were first immobilized onto Neutravidin ELISA plates (Pierce) for 2 hours at room temperature in binding buffer (TBST with 0.1% BSA). […] After washing three times with TBST the plate was then treated with a 1:1000 dilution of the anti-RAS rabbit mAb (Cell Signaling Technology) in binding buffer for thirty minutes, washed three times with TBST, incubated with anti-Rabbit-HRP secondary antibody (Cell Signaling Technology) for thirty minutes and developed with TMB substrate (KPL) for five to ten minutes. The absorbance of samples at 450 nm wavelength was measured using a spectrophotometer.

| Structure (SMILES) | levels of K-Ras G12D protein by Western blot (K-Ras G12D [1]) | binding to K-Ras G12D in ELISA (absorbance units), result in words (K-Ras G12D [2]) |
| --- | --- | --- |
| CC(C)C[C@@H]1NC(=O)[C@@H](N)Cc2cn(nn2)CCCC[C@@H](C(=O)NCCCOCCOCCOCCCNC(=O)CCCC[C@@H]2SC[C@@H]3NC(=O)N[C@@H]32)NC(=O)[C@H](CCCNC(=N)N)NC(=O)[C@@H]2CCCN2C(=O)CNC(=O)[C@H](CCCNC(=N)N)NC1=O [7b5, Pra-LRGPR-Az4-PEG-Biotin] | induce proteasomal degradation of K-Ras G12D | – |
| CC(C)C[C@@H]1NC(=O)[C@@H](N)Cc2cn(nn2)CCCC[C@@H](C(=O)NCCCOCCOCCOCCCNC(=O)CCCC[C@@H]2SC[C@@H]3NC(=O)N[C@@H]32)NC(=O)[C@H](CCCNC(=N)N)NC(=O)[C@H](CC(=O)O)NC(=O)CNC(=O)[C@H](CCCNC(=N)N)NC1=O [7b, Pra-LRGDR-Az4-PEG-Biotin] | – | strongest binding fluorescence; also recorded: highest affinity |
